# Experimental data as given in patent US20040028631A1, “Cosmetic formulations” (priority 2000, published 2004).
# Where two headings read alike, the source gives them in different places.
# Assays:
# [1] = Optimum concentration (substance data tables; stabilizing effect)
# From the text: With respect to the stabilizing effect of optically active DIP it is most important that the substance is present in the form of potassium salt.
# Solubility in water = format: physicochemical
# Water binding capability = format: physicochemical
# From the text: Moreover, the compound is thus of interest for the regulation and balancing of the skin's moisture characteristics. This is at least of additional advantage when the compound is used as a cosmetic agent.
# proteins = experiment: Protection against thermally induced denaturation of proteins; format: biochemical
# From the text: Little is known at the present time about the effect of DIP in general. This mainly due to the fact that only very little of this compound is available.
# [2] = Chemical, physical, pH and light stability; format: physicochemical
# [3] = Biocompatibility / allergenic potential
# model proteins = experiment: Protection of model proteins; format: biochemical; conditions: protecting model proteins
# Experimental: Application related examinations were conducted with di-glycerol phosphate (DGP) aimed at protecting model proteins. As a penetration intensifier di-glycerol phosphate moreover ensures that these macro-molecules are also transported through several skin layers until they have reached their target destination.
SMILES,Optimum concentration [1],solubility in water (Solubility in water),capability of binding water (Water binding capability),protective effect in respect of the thermally induced denaturation of proteins (proteins; first experiments),protective effect in comparison with other compatible solutes (proteins; thermally induced denaturation of proteins),chemical and physical stability [2],chemical and physical stability ([2]; listed as di-myo-inositol phosphate),biocompatibility [3],protective potential compared with glycerine (model proteins)
"O=P(O)(O[C@@H]1[C@H](O)[C@H](O)[C@@H](O)[C@H](O)[C@H]1O)O[C@@H]1[C@@H](O)[C@H](O)[C@@H](O)[C@H](O)[C@@H]1O [DIP, di-myo-inositol phosphate]",250 to 400 mM,Excellent,highly capable of binding water,excellent,far and decidedly better,High,great stability,,
"O=P(O)(OCC(O)CO)OCC(O)CO (stereo not shown) [DGP, di-glycerol phosphate]",100 to 200 mM,Excellent,highly capable of binding water,,,High,,High,by far better protective potential
